Experimental data taken from the CheMixHub viscosity set.

Experiment: xn = mol fraction of the nth substance listed

OCCCl + Nc1cccc(Cl)c1
100 kPa
Conditions | viscosity [mPa·s]
303.15 K, x2 = 0.7938 | 3.925
308.15 K, x2 = 0.3622 | 2.855
313.15 K, x2 = 0.0844 | 1.995
313.15 K, x2 = 0.5814 | 2.795

OCCCO + c1ccncc1
Conditions | viscosity [mPa·s]
313.15 K, 101 kPa, x2 = 0.3 | 8.615

O=c1cc[nH]c(=O)[nH]1 + O
viscosity [mPa·s]
Conditions | 293.15 K | 298.15 K | 303.15 K | 308.15 K | 318.15 K
101 kPa, x1 = 9e-05 | – | 0.879 | – | 0.7172 | 0.5784
101 kPa, x1 = 0.00018 | – | 0.9132 | – | 0.7313 | 0.5871
101 kPa, x1 = 0.00027 | – | 0.9292 | – | 0.7541 | 0.6092
101 kPa, x1 = 0.00036 | – | 0.941 | – | 0.7821 | 0.6272
101.3 kPa, x1 = 0.000113 | 1.004 | – | 0.801 | – | –
101.3 kPa, x1 = 0.000164 | – | 0.892 | – | 0.721 | –
101.3 kPa, x1 = 0.000177 | 1.005 | 0.894 | 0.802 | – | –
101.3 kPa, x1 = 0.0002602 | – | 0.894 | – | – | 0.599
101.3 kPa, x1 = 0.0002747 | 1.006 | – | 0.803 | – | –
101.3 kPa, x1 = 0.0003447 | 1.007 | 0.896 | 0.804 | – | –
101.3 kPa, x1 = 0.0004315 | – | 0.896 | – | – | 0.601
101.3 kPa, x1 = 0.0004415 | – | 0.896 | – | 0.725 | 0.601
101.3 kPa, x1 = 0.0004586 | 1.008 | 0.897 | 0.805 | – | –
101.3 kPa, x1 = 0.0004739 | – | 0.897 | – | 0.725 | 0.601
101.3 kPa, x1 = 0.0005438 | 1.009 | – | 0.806 | – | –

NC=O + OCC(O)CO
viscosity [mPa·s], 101 kPa
Conditions | x2 = 0.057 | x2 = 0.12 | x2 = 0.189 | x2 = 0.266 | x2 = 0.352 | x2 = 0.449 | x2 = 0.559 | x2 = 0.685 | x2 = 0.83
303.15 K | 4.08 | 5.13 | 7.21 | 11.1 | 15.9 | 27.5 | 53.1 | 106.8 | 214.3
318.15 K | 2.98 | 3.52 | 4.65 | 6.53 | 8.88 | 14.1 | 23.9 | 42.7 | 80.6

NC=O + CCCCn1cc[n+](C)c1.F[B-](F)(F)F
101 kPa
Conditions | viscosity [mPa·s]
293.15 K, x2 = 0.7588 | 71.35
303.15 K, x2 = 0.5095 | 21.65

CCCCCCCCCCC + CCCCOCCCC
viscosity [mPa·s], 101 kPa
Conditions | x2 = 0.1096 | x2 = 0.2089 | x2 = 0.3153 | x2 = 0.4013 | x2 = 0.5046 | x2 = 0.6034 | x2 = 0.7073 | x2 = 0.8109 | x2 = 0.9181
298.15 K | 1.004 | 0.9429 | 0.889 | 0.8479 | 0.8073 | 0.7715 | 0.7333 | 0.7 | 0.6643
308.15 K | 0.8817 | 0.8306 | 0.7845 | 0.7501 | 0.7159 | 0.6891 | 0.6599 | 0.6356 | 0.6114
318.15 K | 0.7547 | 0.7179 | 0.6814 | 0.6523 | 0.624 | 0.5989 | 0.5761 | 0.5579 | 0.5355

CC(C)C#N + Clc1ccccc1
viscosity [mPa·s], 101 kPa
Conditions | x2 = 0.1028 | x2 = 0.2026 | x2 = 0.3007 | x2 = 0.4004 | x2 = 0.5004 | x2 = 0.6004 | x2 = 0.6996 | x2 = 0.7998 | x2 = 0.8999
303.15 K | 0.487 | 0.513 | 0.537 | 0.562 | 0.585 | 0.61 | 0.636 | 0.663 | 0.689
308.15 K | 0.456 | 0.48 | 0.503 | 0.525 | 0.545 | 0.569 | 0.592 | 0.616 | 0.643

CN1CCC[C@H]1c1cccnc1 + CC(O)CO
100 kPa
Conditions | viscosity [mPa·s]
293.15 K, x1 = 0.1 | 59.35
293.15 K, x1 = 0.3 | 44.85
298.15 K, x1 = 0.6005 | 14.25
303.15 K, x1 = 0.2009 | 28.85
308.15 K, x1 = 0.6005 | 8.935
313.15 K, x1 = 0.7 | 5.605
313.15 K, x1 = 0.7983 | 4.425
318.15 K, x1 = 0.3 | 11.45

OCCCl + CCCCOC(C)=O
viscosity [mPa·s], 101.33 kPa
Conditions | x1 = 0.1068 | x1 = 0.2078 | x1 = 0.3045 | x1 = 0.4056 | x1 = 0.5002 | x1 = 0.5993 | x1 = 0.7 | x1 = 0.8008 | x1 = 0.8994
298.15 K | 0.718 | 0.784 | 0.865 | 0.97 | 1.105 | 1.286 | 1.549 | 1.919 | 2.359
303.15 K | 0.669 | 0.732 | 0.801 | 0.894 | 1.013 | 1.169 | 1.391 | 1.704 | 2.106
308.15 K | 0.627 | 0.684 | 0.746 | 0.828 | 0.932 | 1.07 | 1.262 | 1.518 | 1.849

CC(C)C#N + Clc1ccccc1Cl
viscosity [mPa·s], 101 kPa
Conditions | x2 = 0.1007 | x2 = 0.2025 | x2 = 0.2999 | x2 = 0.4004 | x2 = 0.4997 | x2 = 0.599 | x2 = 0.6994 | x2 = 0.7997 | x2 = 0.8989
303.15 K | 0.526 | 0.594 | 0.659 | 0.73 | 0.793 | 0.874 | 0.947 | 1.03 | 1.118
308.15 K | 0.489 | 0.551 | 0.608 | 0.667 | 0.732 | 0.798 | 0.87 | 0.945 | 1.02

CN1CCC[C@H]1c1cccnc1 + Oc1ccccc1
viscosity [mPa·s], 101 kPa
Conditions | 308.15 K | 323.15 K
x1 = 0.1004 | 16.28 | 7.224
x1 = 0.206 | 28.72 | 11.46
x1 = 0.2109 | 30.07 | 12.15
x1 = 0.2205 | 29.73 | 11.9
x1 = 0.253 | 29.83 | 12.06
x1 = 0.255 | 29.69 | 12.05
x1 = 0.2629 | 29.4 | 12
x1 = 0.2865 | 28.64 | 11.74
x1 = 0.3078 | 27.55 | 11.63
x1 = 0.4035 | 21.01 | 10.08
x1 = 0.4981 | 16.16 | 8.092
x1 = 0.6636 | 7.423 | 4.797
x1 = 0.7961 | 5.162 | 3.41
x1 = 0.861 | 4.501 | 3.032

NC=O + C1COCCO1
101 kPa
Conditions | viscosity [mPa·s]
298.15 K, x1 = 0.2556 | 1.492
298.15 K, x1 = 0.433 | 1.849
298.15 K, x1 = 0.5602 | 2.219
298.15 K, x1 = 0.6657 | 2.564
298.15 K, x1 = 0.7461 | 2.863
298.15 K, x1 = 0.8157 | 3.094
298.15 K, x1 = 0.8733 | 3.26
298.15 K, x1 = 0.9221 | 3.361
298.15 K, x1 = 0.9643 | 3.363
313.15 K, x1 = 0.2695 | 1.138
313.15 K, x1 = 0.4572 | 1.383
313.15 K, x1 = 0.58 | 1.621
313.15 K, x1 = 0.6792 | 1.846
313.15 K, x1 = 0.7583 | 2.039
313.15 K, x1 = 0.8242 | 2.193
313.15 K, x1 = 0.8775 | 2.294
313.15 K, x1 = 0.9226 | 2.338
313.15 K, x1 = 0.9638 | 2.362

CCOC(=O)CCC(=O)OCC + CCCC(=O)OCC
Conditions | viscosity [mPa·s]
303.15 K, 100 kPa, x2 = 0.3003 | 1.535

O[C@@H]1CO[C@H]2[C@@H]1OC[C@@H]2O + C[N+](C)(C)CC(=O)[O-]
Conditions | viscosity [mPa·s]
298.15 K, 101.33 kPa, x1 = 0.7 | 513.3
